Reference: publication PMC12040169 (PLOS Biology, 2025)

Assay: in vitro
Conditions: human, hela cells, % viability

SMILES | viability at 28.5 h, 10 µM [%]
CCOC(=O)C(CNC(=O)c1cnc(C)c(Br)c1Cl)Cc1ccccc1 (stereo not shown) [CBK305247] | 99.6
O=C1CC(C(=O)Nc2ccccn2)c2ccccc2N1 (stereo not shown) [CBK297771] | 101
Cc1csc2c(C3CCN(C(=O)c4cc[nH]n4)CC3)nc(C)n12 [CBK285245] | 91.9
O=C(c1ccco1)N1CCN(c2cncc(-c3cccc4cccnc34)n2)CC1 [CBK037339] | 96.9
O=C(O)Cn1c(=O)n(CC(=O)O)c2ccccc21 [CBK263550] | 83
Cc1c(C(=O)N2CCC[C@H]2[C@H](O)c2nccs2)oc2ccccc12 [CBK284281] | 100
O=C(NC1CCCc2c1cnn2-c1ccc(F)cc1)c1ccncc1 (stereo not shown) [CBK283929] | 91.6
Cc1[nH]c2ccccc2c1[C@H]1CC[C@@H](NC(=O)c2ccnn2C)C1 [CBK284761] | 99.8
CCN(C)S(=O)(=O)c1ccc(Cl)c(Cl)c1 [CBK045392] | 113
Cc1nc(-c2cccnc2)[nH]c(=O)c1CCC(=O)N1CC2CCC1C2 (stereo not shown) [CBK304198] | 82.3
O=C(NCc1ccco1)C1(c2ccccc2)CCCC1 [CBK149539] | 96
Fc1ccc([C@@H]2CN(Cc3ccccn3)C[C@H]2c2cc[nH]n2)cc1 [CBK285416] | 104
Cc1cc(C)c(-c2csc(NS(=O)(=O)c3cccc(C(=O)O)c3)n2)cc1C [CBK296698] | 118
O=C(O)c1cccc(-c2nc(-c3ccc(S(=O)(=O)N4CCOCC4)cc3)cs2)c1 [CBK297730] | 85.8
Cc1cc2nc(/C(C#N)=C\c3cn(CC(=O)Nc4ccc(F)cc4)c4ccccc34)[nH]c2cc1C [CBK269142] | 113
CCOC(=O)N1CCN(CCC(=O)Nc2ccc3c(c2)CCC3)CC1 [CBK264220] | 111
CC(=O)CCc1oc2c([N+](=O)[O-])cccc2c1-c1ccc(C)o1 [CBK262476] | 89.4
O=C(Cc1ccccn1)N1CCc2ccccc2C1 [CBK200334] | 104
COc1ccc(C(C)C)cc1-c1cnc(N)c(Nc2ccc3[nH]ccc3c2)n1 [CBK063827] | 97.1
Cc1ccc(CN(CCN(C)C)Cc2c(C)nc3sccn23)o1 [CBK283229] | 116
CC(=O)N1CCC[C@H]2NC(=O)CNC(=O)C3(C/C=C/C[C@H]21)CCN(CC(C)C)CC3 [CBK292088] | 106
CC1CC(C)CN(CCCNS(=O)(=O)c2ccc3c(c2)oc(=O)n3C)C1 (stereo not shown) [CBK268695] | 104
CC(Cc1c[nH]c2ccccc12)NC(=N)NC(=N)N (stereo not shown) [CBK268251C] | 91.7

SMILES | viability at 28.5 h, 10 µM [%]
CC(=O)c1cc(C#N)c(SCC(=O)O)nc1C [CBK270189] | 95.8
COC(=O)c1ccc(NC(=O)CN(c2ccc(F)c(Cl)c2)S(C)(=O)=O)cc1 [CBK267657] | 88.3
Fc1ccc(CCNC(=S)NC2CCCC2)cc1 [CBK266175] | 99.9
Cc1ccc(OCCCC(=O)Nc2ccc(C(N)=O)cc2)c(C)c1 [CBK268032] | 93.8
C/C(=N\Nc1nc(-c2ccccc2)cs1)c1ccccc1 [CBK262104] | 88.8
N#Cc1ccncc1NCc1ccccc1CN1CCCC1CO (stereo not shown) [CBK304021] | 85
COCCN1C(=O)C2(CC(=O)N(CC3CCCCC3)C2=O)c2ccccc21 (stereo not shown) [CBK075355] | 97.8
O=C(NC1CCN(CCOc2ccccc2F)CC1)c1cccs1 [CBK305737] | 96.8
CCNS(=O)(=O)c1ccc(NC(=O)Nc2ccccc2OC)cc1 [CBK270331] | 87.8
COCCNC(=O)C1CCCN(c2nc3c(-c4ccccc4)csc3c(=O)[nH]2)C1 (stereo not shown) [CBK215497] | 114
Cc1nn(C)c(N2CCNCC2)c1NC(=O)Cc1cn(C)c2ccccc12 [CBK050254T] | 94.5
CSc1nsc(SCC(=O)c2ccc(NC(C)=O)cc2)n1 [CBK268755] | 82.3
CCN(CC)CC(=O)Nc1sc2c(c1C#N)CCCC2 [CBK261646] | 102
CCCCn1nc(C2CC2)nc1-c1cnn2cc(C)cnc12 [CBK306683] | 89.6
OCCN(Cc1cccnc1)Cc1cccn1Cc1ccccc1F [CBK282945] | 93.5
CCOC(=O)CN1CCC(Oc2nccnc2OCc2ccc(Cl)c(Cl)c2)CC1 [CBK083113T] | 96.7
COc1ccc(NC(=O)C(=O)NCc2ccncc2)cc1 [CBK287723] | 105
O=C(O)c1ccc(OC(=O)C2CCCC2)cc1 [CBK090156] | 103
CC1CC(C)CN(C(=O)CN2C3CCC2CC(O)(c2ccco2)C3)C1 (stereo not shown) [CBK284032] | 92.5
OCc1ccccc1-c1nccnc1NCc1ccco1 [CBK037098] | 94.5
COc1cc([N+](=O)[O-])ccc1-c1ccc(/C=c2\sc3nc4cc(Br)cnc4n3c2=O)o1 [CBK262579] | 103
CCOC(=O)c1cc2c(CNc3ccc(OC)nc3)cccc2o1 [CBK006086] | 91.7
O=C(NC1(c2ccc(Cl)cc2)CC1)C1CCS(=O)(=O)C1 (stereo not shown) [CBK282765] | 75.3

SMILES | viability at 28.5 h, 10 µM [%]
COc1ccc([C@@]23CC[C@@H](NC(=O)Nc4ccon4)C[C@@H]2N(C)CC3)cc1OC [CBK051069T] | 97
CNC(=O)CSc1nccc(C(F)(F)F)n1 [CBK107759] | 101
c1ccc(OCCNc2nccnc2N2CCNCC2)cc1 [CBK013527] | 93.3
COc1ccc(CNC(=O)c2cnc(-c3ccc(F)cc3)c(-c3ccc(C(C)=O)s3)c2)cc1 [CBK036577] | 90.7
Cc1nc(NCCN2CCCC(CO)C2)nc2c1CCCC2 (stereo not shown) [CBK307430] | 82
CCCC(=O)Nc1nc(-c2ccc(C)cc2)c(C)s1 [CBK287763] | 110
CCCCN1CCCC1c1c[nH]c2ccccc12 (stereo not shown) [CBK023773G] | 93
OCCNc1nc(-c2cccnc2)nc2ccccc12 [CBK262314] | 105
COc1ccc(CNC(=O)c2cc(S(=O)(=O)N3CCCC3)cs2)cc1 [CBK307576] | 93.6
Cc1cc(NC(=O)CN2CCC(CNc3ncccc3C#N)C2)on1 (stereo not shown) [CBK306127] | 87.8
CCOc1ccccc1NC(=O)c1cc(CC(C)C)oc1C [CBK057904] | 101
C=CCNC(=O)N1CCC2(CC1)OCCc1c2n(C)c2ccccc12 [CBK047354] | 84.8
Oc1nsnc1-c1ccccc1 [CBK026014] | 95
CCOc1ccc(CN2CCN(CCCc3ccccc3)CC2)cc1 [CBK264153G] | 92.7
O=C1C2(Cc3ccccc3)CN3CN(C2)CC1(Cc1ccccc1)C3 [CBK261341] | 89.9
CCCCOc1ccccc1NC(=O)CC1NCCNC1=O (stereo not shown) [CBK269299] | 94.7
Cc1ccc(NC(=O)COc2ccccc2/C=C/C(=O)O)cc1C [CBK287026] | 111
Cc1cnc2[nH]c(C3CCCN(C(=O)c4cccnc4C)C3)cc2c1 (stereo not shown) [CBK285169] | 101
CCN(CC)C(=O)Cn1nc(C)n2c(cc3occc32)c1=O [CBK283620] | 86.7
O=C(c1ccc(F)cc1)C1CCN(Cc2cccnc2)CC1 [CBK149118] | 101
CCOC(=O)N1C(=O)c2ccccc2NC1(C(F)(F)F)C(F)(F)F [CBK025725] | 102
COCCN1CC2=C(C1=O)C(c1ccc(F)cc1)NC(=O)N2 (stereo not shown) [CBK249447] | 81.9
Fc1ccc(COc2ccccc2CNCCN2CCOCC2)cc1 [CBK278150C] | 91.5

SMILES | viability at 28.5 h, 10 µM [%]
c1ccc2c(OCc3nc4c5c6c(sc5ncn4n3)CCCCC6)cccc2c1 [CBK264151] | 99.6
COCCNC(=O)c1ccc(-c2cc(C(C)C)ccc2OC)nc1N(C)C [CBK106061] | 103
CCOC(=O)CC1C(=O)NCCN1Cc1cccc(C)n1 (stereo not shown) [CBK269965] | 101
Cc1oc(C(=O)O)cc1CSC(C)C(=O)O (stereo not shown) [CBK263556] | 93.8
O=C(N[C@@H]1CNCCC[C@H]1O)c1ccc(OCc2ccccc2)cc1 [CBK289064] | 100
CCOC(=O)C1=C(C)N(CCO)C(=O)NC1c1ccccc1Br (stereo not shown) [CBK027192] | 104
CC[C@H]1CN(C(=O)c2ccnc(Cl)c2)CC[C@H]1CC(=O)O [CBK289139] | 92
CC(=O)NC1=NC(=O)CN1C [CBK020181] | 107
CN1C[C@@H](NS(=O)(=O)c2ccc(C#N)cc2)C[C@H]1c1nc(-c2ccncc2)no1 [CBK288871] | 86.9
O=c1cc(N2CCOCC2)oc2ccccc12 [CBK008244G] | 71.5
Cc1ccc(N(CC(=O)N/N=C2\C(=O)Nc3ccccc32)S(=O)(=O)c2ccccc2)cc1 [CBK262169] | 105
O=[N+]([O-])c1ccccc1CN1CCN(C/C=C/c2ccccc2)CC1 [CBK261518] | 87.1
O=C(CSc1ncnc2ccccc12)NCc1ccco1 [CBK287509] | 98.8
CC(C)(C)c1cc(CCCOC(=O)CNC2CCCCC2)cc(C(C)(C)C)c1O [CBK261998] | 89.4
Cc1cc(C)cc(N(CC(=O)Nc2ccccc2-c2ccccc2)S(=O)(=O)c2ccccc2)c1 [CBK265933] | 92.4
O=C1NC2CCCCC2NC1CC(=O)N1CCN(C(c2ccccc2)c2ccccc2)CC1 (stereo not shown) [CBK269201] | 88.7
COC1C(O)C(CO)OC1n1cc(C)c(N)nc1=O (stereo not shown) [CBK201227] | 108
Cc1ccc(-c2noc(CN(C(=O)CCc3ccccc3)C(C)C)n2)cc1 [CBK269313] | 99.3
COc1cccc(CN2CCC(C(=O)O)CC2)c1OC [CBK286548] | 90.5
Cc1ccc(C)c(-c2csc(NS(=O)(=O)c3cccc(C(=O)O)c3)n2)c1 [CBK296696] | 86.7
Cc1ccc(C2=CCN(CC(=O)Nc3ccc(N(C)C)cc3)CC2)o1 [CBK283604] | 95.5
CCOC(=O)C1CCCN(C(=O)Cn2cnc(-c3cccs3)cc2=O)C1 (stereo not shown) [CBK304210] | 89.3
